Patent US7968526B2, “Antisense oligonucleotides directed to ribonucleotide reductase R2 and uses thereof in the treatment of cancer” (Lorus Therapeutics Inc., priority 2003, dated 2011)
“Also recorded” adds a separate entry of the source.

Assays:
[1] = Phase I study of SEQ ID NO:1 by continuous intravenous infusion in patients with advanced cancer: toxicity and response
Method: Pharmacokinetic parameters were assessed. SEQ ID NO:1 was administered using a portable infusion pump in cycles of 21 days CVI followed by one week of rest. […] Doses were doubled in cohorts of 1-3 patients until the appearance of Gr 1 toxicity, with subsequent escalation of 20-30% in cohorts of 3 patients. DLT was defined as Gr 4 neutropenia lasting 3 days or with fever; Gr 4 thrombocytopenia (T) or Gr 3 T with Gr 1 bleeding; or Gr 3 non-hematologic toxicity.

[2] = tested on: human Burkitt's lymphoma (Raji) cells; assay: Survival of SCID mice bearing human Burkitt's lymphoma (Raji); format: in vivo, human cells in mice
Method: Mice with established human Burkitt's lymphoma tumours were treated every second day with either saline or SEQ ID NO:1 for 44 days as described above. The control group mice all died from disease progression by day 20. At day 44, the SEQ ID NO:1 mice continued treatment on a weekly basis until stopping the treatment at day 73.
As an additional test of efficacy SEQ ID NO:1 was administered to SCID mice bearing active Burkitt's lymphoma (FIG. 30). Viable human Burkitt's lymphoma (Raji) cells (5×10^6) collected from subconfluent logarithmically growing cultures were injected i.v. into each animal and disease was allowed to establish for 2 days. SEQ ID NO:1, SEQ ID NO:3 and SEQ ID NO:2, in normal saline were administered by tail vein injection every second day at a dose of 10 mg/kg. At day 40 the treatment schedule was reduced to 10 mg/kg every 3 days. Control animals received saline alone, without oligonucleotide. Survival is presented as a percentage of the starting number of mice over time.

[3] = Pharmacokinetics in the rat (plasma, CE method); format: in vivo
Method: The toxicokinetics and tissue distribution of SEQ ID NO:1 (and related oligonucleotide metabolites obtained from exonuclease-mediated chain shortening) were determined in rats and monkeys. In addition to investigating the pharmacokinetics and tissue distribution of SEQ ID NO:1, the purpose of the studies was to correlate adverse effects in the animal studies to the concentrations of SEQ ID NO:1 (and metabolites) in tissue and blood. A capillary electrophoresis (CE) method was used to measure the concentrations of SEQ ID NO:1 (and metabolites) in plasma and tissues.
In a pharmacokinetic study, groups of male rats were administered one or two bolus i.v. injections (tail vein) of SEQ ID NO:1 at a dose of 50 mg/kg (295 mg/m^2) and intravenously infused (abdominal vena cava) for up to 48 h at a dose of 50 mg/kg/day (295 mg/m^2/day). Blood samples were collected into EDTA-containing tubes from subsets of animals in each group at various sampling times up to 56 h after initiation of infusion or bolus injection. Parent SEQ ID NO:1 concentrations were measured in plasma by a validated CE method.

[4] = Cycle 1, 18.5 mg/m^2/day 21 day CVI, 2 patients
[5] = Cycle 1, 74 mg/m^2/day 21 day CVI, 1 patient
[6] = Cycle 1, 148 mg/m^2/day 21 day CVI, 6 patients
[7] = Cycle 1, 185 mg/m^2/day 21 day CVI, 9 patients
[8] = Cycle 1, 222 mg/m^2/day 21 day CVI, 7 patients
[9] = 50 mg/kg/day continuous intravenous infusion

5′-GGCTAAATCGCTCCACCAAG-3′ (all phosphorothioate, sugars by position and methylation of C not given here) [SEQ ID NO: 1, fully phosphorothioated antisense oligonucleotide that hybridizes to the coding region of R2 mRNA]
DLT: Gr 3 fatigue ([1]; 148 mg/m^2/day): 1/6
Tolerability at the recommended phase II dose ([1]; 185 mg/m^2/day): well tolerated by 11 patients
DLT: Gr 4 transaminase elevation ([1]; 222 mg/m^2/day): 2/6
recommended phase II dose ([1]; 21 days CVI followed by one week of rest): 185 mg/m^2/day
maximum tolerated dose (MTD) ([1]; 21 days CVI followed by one week of rest, patients with advanced malignancies): 222 mg/m^2/day
No. of Patients with Grade of Toxicity: Anorexia Grade 1 [1, 4]: 1
No. of Patients with Grade of Toxicity: Fatigue Grade 1 [1, 4]: 1
No. of Patients with Grade of Toxicity: Anorexia Grade 1 [1, 5]: 1
No. of Patients with Grade of Toxicity: Fatigue Grade 1 [1, 5]: 1
No. of Patients with Grade of Toxicity: Nausea Grade 1 [1, 5]: 1
No. of Patients with DLT (Table 10) [1, 6]: 1
No. of Patients with Grade of Toxicity: Anorexia Grade 1 [1, 6]: 1
No. of Patients with Grade of Toxicity: Anorexia Grade 2 [1, 6]: 1
No. of Patients with Grade of Toxicity: Fatigue Grade 1 [1, 6]: 1
No. of Patients with Grade of Toxicity: Fatigue Grade 2 [1, 6]: 1
No. of Patients with Grade of Toxicity: Fatigue Grade 3 (*DLT) [1, 6]: 1*
No. of Patients with Grade of Toxicity: Nausea Grade 2 [1, 6]: 1
No. of Patients with Grade of Toxicity: Neutropenia Grade 3 [1, 6]: 1
No. of Patients with Grade of Toxicity: Anorexia Grade 1 [1, 7]: 2
No. of Patients with Grade of Toxicity: Fatigue Grade 1 [1, 7]: 3
No. of Patients with Grade of Toxicity: Fatigue Grade 2 [1, 7]: 2
No. of Patients with Grade of Toxicity: Nausea Grade 1 [1, 7]: 3
No. of Patients with DLT (Table 11) [1, 8]: 2
No. of Patients with Grade of Toxicity: Anemia Grade 2 [1, 8]: 2
No. of Patients with Grade of Toxicity: Anorexia Grade 2 [1, 8]: 1
No. of Patients with Grade of Toxicity: Bilirubin Grade 2 [1, 8]: 1
No. of Patients with Grade of Toxicity: Bilirubin Grade 4 (*DLT) [1, 8]: 1*
No. of Patients with Grade of Toxicity: Fatigue Grade 1 [1, 8]: 3
No. of Patients with Grade of Toxicity: Fatigue Grade 2 [1, 8]: 1
No. of Patients with Grade of Toxicity: Nausea Grade 1 [1, 8]: 3
No. of Patients with Grade of Toxicity: Neutropenia Grade 2 [1, 8]: 1
No. of Patients with Grade of Toxicity: Rash Grade 2 [1, 8]: 1
No. of Patients with Grade of Toxicity: Transaminases Grade 2 [1, 8]: 1
No. of Patients with Grade of Toxicity: Transaminases Grade 4 (*DLT) [1, 8]: 2*
Hematologic toxicity ([1]; doses 18.5 to 222 mg/m^2/day): mild
Number of DLTs observed ([1]; doses 18.5 to 222 mg/m^2/day): Three DLTs were observed in 25 patients assessable for toxicity
Other serious toxicities: Gr 3 non-neutropenic infection ([1]; doses 18.5 to 222 mg/m^2/day): 2 patients
Other serious toxicities: bowel obstruction ([1]; doses 18.5 to 222 mg/m^2/day): 1 patient
common (Gr 1-2) non-hematologic toxicities: anorexia ([1]; doses 18.5 to 222 mg/m^2/day): 42%
common (Gr 1-2) non-hematologic toxicities: fatigue ([1]; doses 18.5 to 222 mg/m^2/day): 69%
common (Gr 1-2) non-hematologic toxicities: nausea ([1]; doses 18.5 to 222 mg/m^2/day): 38%
Tumour response: stable disease ([1]; patients with advanced cancer, after 2 cycles): Four patients had stable disease (SD) after 2 cycles
Survival of mice ([2]; SCID mice (Example 7, FIG. 30), 10 mg/kg i.v. every second day, from day 40 every 3 days, 10 mg/kg): survived to the end of the study; also recorded: dramatic increase in survival time of mice well beyond the treatment period
Survival of mice ([2]; SCID mice, 10 mg/kg i.v. every second day, stopped at day 42, sacrificed day 73, untreated all died within 23 days): survived beyond day 73 except one mouse, which died at day 69
Survival of mice ([2]; second independent study, every second day for 44 days then weekly until day 73, controls all died by day 20): All mice survived to the end of the experimental period (140 days)
AUC(0-24) [3, 9]: 208 µg·h/mL
Cl (plasma clearance) [3, 9]: 3.6 mL/min/kg
Css (mean plasma steady state concentration) [3, 9]: 9.62 µg/mL
Time after infusion initiation at which steady state level was achieved [3, 9]: approximately 3 hr
AUC(0-24) ([3]; 50 mg/kg/day i.v. bolus): 369 µg·h/mL
AUC(0-inf) ([3]; 50 mg/kg/day i.v. bolus): 650 µg·h/mL
AUC(0-t) ([3]; 50 mg/kg/day i.v. bolus): 637 µg·h/mL
Cl (plasma clearance) ([3]; 50 mg/kg/day i.v. bolus): 2.57 mL/min/kg
Kel ([3]; 50 mg/kg/day i.v. bolus): 0.5109 h⁻¹
T1/2 (plasma half-life) ([3]; 50 mg/kg/day i.v. bolus): 81.6 min
Tmax ([3]; 50 mg/kg/day i.v. bolus): 4.98 min
Cmax ([3]; 50 mg/kg/day i.v. bolus, after second bolus injection): 679 µg/mL
